According to article PMC11469249, “Enzyme‐Triggered L‐α/D‐Peptide Hydrogels as a Long‐Acting Injectable Platform for Systemic Delivery of HIV/AIDS Drugs” (Advanced Healthcare Materials, 2023):
Where a SMILES comes first, the peptide text is derived from it. [ ]: non-standard residue; d: D form. The star is where a group is joined. X1 = Cc1cn([C@H]2C[C@H](N=[N+]=[N-])[C@@H](COC(=O)CCC(=O)*)O2)c(=O)[nH]c1=O; Acetyl(2-naphthyl) = O=C(Cc1ccc2ccccc2c1)*; pY = N[C@@H](Cc1ccc(OP(=O)(O)O)cc1)C(=O)O

Columns and labels:
NCTC 929 (ATCC CCL 1) = assay: MTS viability assay, solubilized peptides; type: cell-based, murine; details: 500 µM; at each timepoint (6, 24, 72 h)
Description: Cell toxicity was assessed above and below critical gelation concentrations utilizing the International Standard (ISO) murine fibroblast subcutaneous connective tissue cell line NCTC 929 (ATCC CCL 1).^[ [51] ^]
Preparation of tissue cell cytotoxicity assays: Cells were cultured in Minimum Essential Medium (MEM) containing phenol red, Earle's Salts, and L‐glutamine supplemented with 10% fetal bovine serum and 1 mM sodium pyruvate (Invitrogen, Paisley, UK) and grown at 37 °C/5% CO2. Cells were subcultured at 80–90% confluency via removal of media, washing with sterile PBS, and detachment of cell monolayers with 0.05% trypsin/0.53 mM EDTA.4Na solution (Invitrogen, Paisley, UK). Cells were cultured until at least the third passage, seeded at 1 × 10^4 cells per well in sterile 96‐well microtiter plates for 6 h, 24 h, and 56 day treatment times and seeded at 5 × 10^3 cells per well for 72 h treatment times. […]
Following exposure to peptide after 6, 24 and 72 h, cell viability was assessed using a MTS based CellTiter 96 AQueous One Solution Cell Proliferation Assay (Promega, Southampton, UK). Absorption was measured at 490 nm using a Tecan Sunrise plate reader (Tecan UK Ltd, Reading, UK). Cell viability was calculated using Equation (2) below and reported as the mean of nine replicates.

proteinase K = proteinase K (Parengyodontium album, UniProt P06873); assay: Biostability against proteinase K; type: in vitro ADME; details: after 672 h (28 days); 0.02 w/v% peptide in PBS; proteinase K 3 U/mL; 37 °C; RP-HPLC peak area vs t = 0; mean n = 3
Sequence of proteinase K (P06873 106-384): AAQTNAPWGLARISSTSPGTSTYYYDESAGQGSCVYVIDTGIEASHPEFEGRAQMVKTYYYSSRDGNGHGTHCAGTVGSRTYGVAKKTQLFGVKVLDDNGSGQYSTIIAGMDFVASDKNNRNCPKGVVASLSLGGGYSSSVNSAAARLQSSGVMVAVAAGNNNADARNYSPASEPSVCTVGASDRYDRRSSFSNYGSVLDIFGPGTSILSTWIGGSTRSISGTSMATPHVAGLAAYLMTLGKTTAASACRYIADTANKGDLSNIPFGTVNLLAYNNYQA
Description: Peptides were tested for stability at multiple time points over 28 days by incubation with the broad‐spectrum protease proteinase K. Peptides were tested in solution form at concentrations below their critical gelation concentrations (0.02 w/v%) to reduce any resistance to proteolysis offered by the hydrogel matrix itself.^[ [76] ^] 1 mL aliquots of peptide dissolved in PBS buffer were added to Eppendorf tubes. Proteinase K was added at a concentration of 3 U/mL and incubated at 37 °C. Then 100 µL samples were removed at pre‐determined time points (t = 0, 0.5, 1, 3, 6, 24, 72, 168, 336, 504, and 672 h) and added to 50 µL of concentrated acetic acid to inactivate proteinase K enzyme. Then 100 µL samples were then analyzed via RP‐HPLC. The amount of peptide remaining at each time point was calculated based on the area of the peak corresponding to the peptide and presented as a percentage of the area of this peak at t = 0 (Equation (1)). (1) %Peptideremaining=Areaofpeptidepeakattesttimepoint/[Areaofpeptidepeakatt=0]×100

[1] = test system: alkaline phosphatase enzyme; assay: Rheological time sweeps, gelation time after alkaline phosphatase addition; type: physicochemical; details: time sweep, 2 w/v%, 2 U alkaline phosphatase, 37 °C; for G′ and G″ cross (gelation time): PP50/S parallel plate, 0.5 mm gap
Description: The gelation of peptides and peptide‐antiretroviral conjugates was tested over a range of concentrations (0.1–2 w/v%) in pH 7.4 phosphate buffered saline (PBS). The ability of alkaline phosphatase enzyme to trigger gelation was studied by adding 2 µL of 2 U (1000 U/mL) solution to the dissolved peptide‐PBS mixtures. Hydrogel formulation steps are outlined fully in Table S2, Supporting Information. A vial inversion assay was used as a screening tool to assess gel propensity, whereby peptide‐PBS‐alkaline phosphatase mixtures were inverted within glass HPLC vials. Gel formation and the mechanical strength of gels were definitively characterized via oscillatory rheology using an Anton Paar MCR302 rheometer (Anton Paar, St Albans, UK). A vane and cup geometry was used to perform frequency and strain sweeps. Gels were formulated as 2 mL volumes in 7 mL Sterilin vials as previously described.^[ [39b] ^] Frequency sweeps were performed at 37 °C from 1–100 rad/s at a strain of 0.5%. Amplitude sweeps were performed at 37 °C, 2.5 rad/s and a strain of 0.01–1000%. Flow point or breakage strain, where G″ ≥ G′ within the strain sweeps, was used as a measurement of gel strength. Time sweeps were performed using a sand blasted parallel plate PP50/S system at 37 °C with a 0.5 mm measuring gap over a period of 24 h. Loss and storage moduli, critical strain, viscosity, and oscillatory time sweeps were performed to relate rheological changes with time and potential for rapid in situ hydrogel implant formation upon exposure to 2 U phosphatase enzyme.
Table S3. Gelation times for peptide hydrogels upon addition of alkaline phosphatase enzyme derived from data above in Figure S12 and Figure 3 c-d.
Peptide G′ and G″ G′ > 2x G′′ Time for […]
d) NapFFK(AZT)Y-OH 8.5 min 9 min 88.3 min

[2] = Small angle neutron scattering (SANS) of hydrogels; type: physicochemical; details: 2 w/v% hydrogels in D2O; flexible cylinder elliptical model with Power Law
Description: SANS was used to determine the morphology of the structures underpinning the hydrated peptide gel network. Both drug and non‐drug conjugated forms of peptides L‐α (NapFFKY‐OH and NapFFKYG‐OH) and D‐enantiomer (NapffkY‐OH and NapffkYG‐OH) were studied. Peptide hydrogels (2 w/v%) were formulated as described (Table S2, Supporting Information) in 2 mm path length UV spectrophotometer grade quartz cuvettes (Hellma) but using deuterated water (D2O) rather than PBS. SANS measurements were performed using the D11 instrument at the Institut Laue – Langevin, Grenoble, France. Scattering from the primary assembled structures (most commonly fibers) and the network were collected over a wide Q range (Q = 4πsin(θ/2)/λ) of 0.001 to 0.5 Å^−1 and three sample‐detector distances (1.4, 8, and 39 m).^[ [44] ^] Peptide samples were placed in a temperature‐controlled sample rack during measurements. The datasets obtained were reduced to 1D scattering curves of intensity versus Q using the facility provided software. Scattering from D2O controls, empty cuvette, and electronic background were subtracted from the data and the full detector images were normalized. SasView software version 5.0.4 was used to fit instrument‐independent data to several models with and without a power law applied, including a cylinder, an elliptical cylinder, a flexible cylinder, a flexible elliptical cylinder and hollow cylinders. […]

NCTC 929 cells = assay: 56 day indirect toxicity of hydrogels, LDH; type: cell-based, murine; details: 2 w/v% hydrogel supernatant; 6 h exposure; n = 3
Description: Biocompatibility at the highest gel concentration of 2.0 w/v% was examined by measuring cell metabolic activity (MTS) and cytotoxicity (LDH release) in the presence of media containing leached degradation products from the peptide gels over a period of 56 days.^[ [77] ^] Following the formation of gels as outlined in Table S2, Supporting Information, 2 mL of media was added on top of each gel (1 mL of 2 w/v% gel) within a 10 mL glass vial and incubated at 37 °C and 5% CO2. For each time point in the 56 day study, NCTC 929 cells at 80–90% confluency were seeded into the wells of a 96 well plate at a concentration of 1 × 10^4 cells per well and incubated for a period of 24 h. One set of wells was left untreated and acted as the negative control, that is, metabolic activity of cells with no peptide. In the case of the LDH indirect toxicity assay, the media was removed from the cells before adding 50 µL of fresh media and 50 µL of the supernatant from the 2.0 w/v% gels at specific time points: 1, 3, 7, 14, 21, 28, and 56 days and incubated for 6 h before adding the test reagent as described above. A high LDH release control and a low LDH release control were created as before. Each experiment was performed in triplicate. The percentage cytotoxicity was calculated using Equation (2) above. […] The metabolic activity was calculated using Equation (1) above.

**Q.** Which “reduction in cell metabolic activity (MTS)” value (NCTC 929 (ATCC CCL 1)) does the source give for `Cc1cn([C@H]2C[C@H](N=[N+]=[N-])[C@@H](COC(=O)CCC(=O)NCCCC[C@H](NC(=O)[C@H](Cc3ccccc3)NC(=O)[C@H](Cc3ccccc3)NC(=O)Cc3ccc4ccccc4c3)C(=O)N[C@@H](Cc3ccc(OP(=O)(O)O)cc3)C(=O)O)O2)c(=O)[nH]c1=O` [NapFFK(AZT)Y(p)-OH] ({Acetyl(2-naphthyl)}-FFK(X1)[pY]-OH) here?
**A.** 40–51%

**Q.** Which “zidovudine blood plasma concentrations for 35 days” value (subcutaneous administration, within IC50 range) does the source give for `Cc1cn([C@H]2C[C@H](N=[N+]=[N-])[C@@H](COC(=O)CCC(=O)NCCCC[C@H](NC(=O)[C@H](Cc3ccccc3)NC(=O)[C@H](Cc3ccccc3)NC(=O)Cc3ccc4ccccc4c3)C(=O)N[C@@H](Cc3ccc(OP(=O)(O)O)cc3)C(=O)NCC(=O)O)O2)c(=O)[nH]c1=O` [NapFFK(AZT)Y(p)G-OH] here?
**A.** 30 to 130 ng/mL

**Q.** With `NCCCC[C@H](NC(=O)[C@H](Cc1ccccc1)NC(=O)[C@H](Cc1ccccc1)NC(=O)Cc1ccc2ccccc2c1)C(=O)N[C@@H](Cc1ccc(OP(=O)(O)O)cc1)C(=O)O` [NapFFKY(p)-OH, phosphorylated (naphthalene‐2‐ly)‐acetyl‐diphenylalanine‐lysine‐tyrosine‐OH] (HELM PEPTIDE1{[O=C(Cc1ccc2ccccc2c1)[*:2]].F.F.K.[O=C(O)[C@H](Cc1ccc(OP(=O)(O)O)cc1)N[*:1]]}$$$$V2.0) as the compound, how does the “% peptide remaining” value (proteinase K) read?
**A.** 85.4%

**Q.** Which “% peptide remaining” value (proteinase K) does the source give for `NCCCC[C@H](NC(=O)[C@H](Cc1ccccc1)NC(=O)[C@H](Cc1ccccc1)NC(=O)Cc1ccc2ccccc2c1)C(=O)N[C@@H](Cc1ccc(OP(=O)(O)O)cc1)C(=O)NCC(=O)O` [NapFFKY(p)G-OH] here?
**A.** 91.9%

**Q.** With `Cc1cn([C@H]2C[C@H](N=[N+]=[N-])[C@@H](CO)O2)c(=O)[nH]c1=O` [zidovudine, reference compound] as the compound, how does the “time after which plasma zidovudine is undetectable” value (zidovudine intravenous control) read?
**A.** 6 h

**Q.** With “NapFFKY-OH [hydrogel-forming peptide after phosphatase removal of the phosphate group]” as the compound, how does the “G′ > 2x G″” value [1] read?
**A.** 9.67 min

**Q.** And the “Time for stable G′” value [1]?
**A.** 68.3 min

**Q.** What about the “G′ and G″ cross (gelation time)” value [1] of the same compound?
**A.** 8.58 min

**Q.** What about the fiber radius [2] of the same compound?
**A.** 1.495 nm

**Q.** Which results are given for “NapFFKYG-OH [hydrogel-forming L-α peptide with glycine spacer]”?
**A.** G′ > 2x G″ [1]: 7.75 min; Time for stable G′ [1]: 65.7 min; G′ and G″ cross (gelation time) [1]: 5.92 min; fiber radius [2]: 2.038 nm; LDH cell toxicity, indirect, after 21 days (NCTC 929 cells): 23.2%; LDH cell toxicity, indirect, after 56 days (NCTC 929 cells): 37%
